In patent publication US6936572B2, “Agrochemical formulation aid composition and uses thereof” (Adjuvants Plus Inc., priority 2000, dated 2005):
Like-named read-outs stand apart in the source and are kept apart here.

Legend:
[1] = tested on: various annual and perennial weeds; settings: 21 DAT; spray volume of 200 l/ha; different rates; two fields
Experimental: (§1) The results shown in Table 3 were obtained by applying the mixture of dicamba technical acid (87%) and the formulation aid to two fields infected with various annual and perennial weeds (indicated in Table 3). The experiments were conducted between the period of September 1998 to August 2000.

[2] = tested on: Pig Weed; settings: 21 DAT, spray volume 200 l/ha
Experimental: as §1

[3] = tested on: Lambsquarters; settings: 21 DAT, spray volume 200 l/ha
Experimental: as §1

[4] = tested on: Annual grasses; test: Field control of broad-spectrum weeds with glyphosate technical acid + formulation aid (Example 2); assay type: in vivo, foxtails, annual bluegrass, crabgrass, witchgrass; settings: 21 DAT
Experimental: (§2) Prior to any preparation all spray-mixing and application equipment were cleaned thoroughly by observing cleaning directions provided on the agrochemical labeling and accompanying materials provided by the maker. Half of the required water was placed in a spray tank. A required amount of the formulation aid was added in the spray tank for the required rate of glyphosate application as indicated in Table 1. […] Mixing was continued and remainder of the water was added to the spray tank. Mixing was: continued for another 5-10 minutes. The ready to use herbicide and formulation aid mixture was applied by spraying at the required rate.
(§3) The formulation aid tested in this example contained about 21.5% by weight aromatic hydrocarbon distillate, about 3.1% by weight 2N-octanol, about 5.7% by weight oleyl-cetyl alcohol, about 3.1% by weight polyoxyethylene (8) nonylphenolethin, about 33.3% by weight polyoxyalkylated fatty alcohol, and about 33.3% by weight ethoxylated tallow amine blend.

[5] = tested on: Dandelions; test: as above; assay type: in vivo; settings: 21 DAT
Experimental: as §2, §3

[6] = tested on: Quackgrass; test: as above; assay type: in vivo; settings: 21 DAT
Experimental: as §2, §3

[7] = tested on: Pig Weed; test: as above; assay type: in vivo; settings: 21 DAT
Experimental: as §2, §3

[8] = tested on: Sow Thistle; test: as above; assay type: in vivo; settings: 21 DAT
Experimental: as §2, §3

[9] = tested on: Lambsquarters; test: as above; assay type: in vivo; settings: 21 DAT
Experimental: as §2, §3

[10] = tested on: Canada Thistle; test: as above; assay type: in vivo; settings: 21 DAT
Experimental: as §2, §3

[11] = tested on: Catnip; test: as above; assay type: in vivo; settings: 21 DAT
Experimental: as §2, §3

[12] = tested on: various annual and perennial weeds; test: Field weed control overall, glyphosate technical acid (Example 2); assay type: in vivo; settings: 21 DAT; different rates; 10 fields
Experimental: as §2, §3

[13] = Dicamba 0.140 Kg/ha + formulation aid 1.0 L/ha or + water
[14] = Dicamba 0.280 Kg/ha + formulation aid 1.0 L/ha or + water
[15] = glyphosate technical acid (95%) 0.24 Kg or l/ha + formulation aid 0.5 l/ha or + water
[16] = glyphosate technical acid (95%) 0.53 Kg or l/ha + formulation aid 0.5 l/ha or + water
[17] = glyphosate technical acid (95%) 0.94 Kg or l/ha + formulation aid 0.9 l/ha or + water

COc1c(Cl)ccc(Cl)c1C(=O)O [Dicamba + water, 3,6-dichloro-2-methoxybenozic acid]
0%: Control of Pig Weed [2, 13] | Control of Pig Weed [2, 14] | Control of Lambsquarters [3, 13] | Control of Lambsquarters [3, 14]
No weed control: weed control (in words) [1]

O=C(O)CNCP(=O)(O)O [Glyphosate + water, N-phosphonomethylglycine]
0%: Control of Annual grasses [4, 15] | Control of Annual grasses [4, 16] | Control of Annual grasses [4, 17] | Control of Dandelions [5, 15] | Control of Dandelions [5, 16] | Control of Dandelions [5, 17] | Control of Quackgrass [6, 15] | Control of Quackgrass [6, 16] | Control of Quackgrass [6, 17] | Control of Pig Weed [7, 15] | Control of Pig Weed [7, 16] | Control of Pig Weed [7, 17] | Control of Sow Thistle [8, 15] | Control of Sow Thistle [8, 16] | Control of Sow Thistle [8, 17] | Control of Lambsquarters [9, 15] | Control of Lambsquarters [9, 16] | Control of Lambsquarters [9, 17] | Control of Canada Thistle [10, 15] | Control of Canada Thistle [10, 16] | Control of Canada Thistle [10, 17] | Control of Catnip [11, 15] | Control of Catnip [11, 16] | Control of Catnip [11, 17]
No weed control: weed control (in words) [12]
